Measurements as given in publication PMC10600239, “Selective MCL-1 inhibitor ABBV-467 is efficacious in tumor models but is associated with cardiac troponin increases in patients” (Communications Medicine, 2023).
“And” between values parts separate entries of the source, which are not always exact repeats. Equal entries are not always repeated. Where two headings read alike, the source gives them in different places.

Legend:
[1] = Conscious telemetry-instrumented dog cardiovascular safety pharmacology; assay type: in vivo; conditions: conscious beagle, IV, at 3-mg/kg dose
Description: ABBV-467 was profiled in safety pharmacology studies in anesthetized (non-Good Laboratory Practice [GLP]) and telemetry-instrumented conscious (GLP) dog cardiovascular assays (Supplementary Table S6).
Supplementary Table S6: Maj or findings in safety pharmac ology cardiovascular studies c onduc ted with ABBV- […]
Species/Strain Route of Concentrations Sex and N Results
Administration or Doses per Group […]
Anesthetized IV 1, 3, and Male No effects up to a plasma concentration dog 10 m g/ k gN=4 o f 16 .83 µg/mL on […]
aged 8-12 months • Heart rate
• Systemic vascular resistance
At 67 .23 mg/m L, an increase in heart rate and decrease in systemic vascular
Conscious IV 0, 0.3, 1, and Male No effects on blood pressure, heart dog 3 mg/kg N=5–6a rate, or ECG parameters at any dose beagle (plasma concentration of 6.53 µg/mL at (aged 8-12 months 3-m g/ k g do s e )
ECG, electrocardiogram; IC50, half maximal inhibitory concentration; IV, intravenous; QTcV, QT interval correct ed accor ding to the Van de Water formula. No animals or data were excl uded from analysis . […] Healthy dogs, as determined by veterinary physical examination and clinical pathology, were selected for study based on availability without explicit randomization. […] Power analysis has shown a group size of 6 can statistically detect an approximately 20 % alteration in measured parameters w ith α =0.0 5. […]

[2] = test system: DLD-1 cells; assay: In vitro cell viability assay (CellTiter-Glo); assay type: cell-based, human; conditions: for EC50: Homo sapiens
Protocol: (§1) All cell lines were grown and treated in RPMI 1640 or Dulbecco’s modified Eagle medium (Sigma, St. Louis, MO) supplemented with 10% fetal bovine serum (Gibco) or 10% human serum (Sigma) and maintained in a humidified incubator at 5% CO2 and 37 °C. DLD-1, MV4-11, NCI-H929 (all ATCC, Manassas, VA, USA) and AMO-1 (DSMZ, Braunschweig, Germany) cells were plated 4000 cells per well in 384-well tissue culture plates and treated with compounds of interest for 24 h at 37 °C, 5% CO2 humidified incubator. Each concentration was tested in duplicate at least 3 separate times. Adherent cells were allowed to adhere overnight prior to treatment. Alternatively, AMO-1 or NCI-H929 cells were treated with ABBV-467 for the indicated contact times (1–24 h) at 37 °C in a 5% CO2 humidified incubator and washed 3 times with compound-free media prior to incubation for the remainder of a 24-h treatment period. Cell viability was subsequently determined using CellTiter-Glo (Promega, Madison, WI, USA) according to the manufacturer’s instructions.
(§2) For in vitro viability assays, mean EC50 and EC90 values were determined from the resulting dose-response curves from at least 3 independent experiments, and depict the mean ± standard error of the mean.

[3] = test system: MV4-11 cells; assay: In vitro cell viability assay (CellTiter-Glo); assay type: cell-based, human
Protocol: as §1, §2

Compound: Cc1c(Cl)c2c(Cl)c(C)c1-c1c(-c3ccc(F)cc3)sc3ncnc(c13)O[C@@H](C(=O)O)Cc1cc(ccc1OCc1ccnc(-c3ccc(OC[C@H]4COCCO4)cc3)n1)OC[C@@H](CN1CCN(C)CC1)O2 [ABBV-467]
- plasma concentration with no effects on blood pressure, heart rate, or ECG parameters [1]: 6530 ng/mL
- activity in DLD-1 [2]: inactive
- EC50 ([2]; DLD-1, read-out: DLD-1 EC50 (nM), 10% FBS, 24 h continuous treatment): > 10000 nM
- EC50 ([2]; DLD-1, arithmetic mean, read-out: Arithmetic Mean EC50): > 10000 nM
- EC50 ([2]; DLD-1, individual determinations, read-out: Individual EC50): > 10000 nM
- EC50 ([3]; Homo sapiens, MV4-11, MV4-11, arithmetic mean, read-out: Arithmetic Mean EC50 µM): 0.00391 µM
- EC50 ([3]; Homo sapiens, MV4-11, MV4-11, individual determinations, read-out: Individual EC50): 0.00403 µM
- EC50 ([3]; MV4-11, individual determinations, read-out: Individual EC50): 0.00422 µM and 0.00347 µM
